In article PMC6274259, “New 3-Cyano-2-Substituted Pyridines Induce Apoptosis in MCF 7 Breast Cancer Cells” (Molecules, 2016):

Key:
[1] = system: RKO human colon carcinoma cell line; test: WST-1 cell viability assay, RKO; format: cell-based; settings: WST-1, 24 h treatment, mean ± S.D of three independent experiments
Source text: (§1) The synthesized compounds were screened for their cytotoxicity on five cancer cell lines, namely SK-OV-3, MCF-7, MDA-MB-231, HCT-116 and RKO, using a WST colorimetric assay. The assay principle is based upon the reduction of the tetrazolium salt WST-1 to formazan by cellular mitochondrial dehydrogenases present in viable cells. […] Among the latter compounds the benzohydrazide derivative 9a emerged with the lowest IC50 in this study against MCF-7 cells compared to 5-FU. […] Based on the fact that 9a had less cytotoxic effects on normal breast epithelial cells it was subjected to further studies.
(§2) The following cell lines were used for the screening stage, obtained from the American Type Culture Collection (ATCC, Manassas, VA, USA); SK-OV-3 (HTB-77), MCF-12A (ATCC CRL-10782), MDA-MB-231 (ATCC HTB-26), HCT-116 (CCL-247), RKO (CRL-2577) and sub-culturing of the above cell lines was conducted in 75 cm^2 flasks. The old culture media was removed and discarded after assessing the confluency of the cells and the cells were rinsed with 2–3 mL diluted trypsin (1×) (trypsin/EDTA solution consists of 0.025% trypsin and 0.01% EDTA in PBS), for about 5 minutes for complete detachment. The cells were observed under the inverted microscope until the cell layer is completely dispersed. 75 cm^2 flasks were prepared and 16 mL of DMEM media for SK-OV-3, MCF-7, MDA-MB-231, (DMEM 4500 mg glucose) and RPMI media for HCT-116 were added to each flask. The cells were aspirated gently and added to the flasks. DMEM 4500 mg/L high glucose with 10% FBS, 5% streptomycin and penicillin, RPMI 1640 (prepared by adding 5% heat-inactivated FCS and 2 mm glutamine) were used. DMEM was also used for MCF-12A cells with the addition of human epidermal growth factor 20 ng/mL, insulin 0.01 mg/mL and hydrocortisone 500 ng/mL.
(§3) The synthesized compounds were screened for their anti-proliferative activity using 5-FU (F6627-1G, Sigma-Aldrich, St. Louis, MO, USA) as reference compound. A concentration of 0.4% DMSO was used in all experiment after ensuring 100% viability of the cell lines with this concentration. A 25 mM stock concentration of all compounds was prepared for further studies and analysis.
(§4) Cells were trypsinized and placed in a 15 mL Falcon tube, the cells were centrifuged for 3 min at 1000 rpm. Trypsin is decanted using a sterile pipette and then the pellet is loosened by flicking the tube few times then 5–10 mL warm DMEM or RPMI were added to the Falcon tube and the pellet is resuspended. Cell count was done next by taking 10 μL of the suspension into the cell counting slide and read under 10× cells/mL. A cell stock of 50,000 cells/mL was prepared for the 96 wells. Cells (100 μL) were added to each well using a sterile pipette each time to ensure consistency. The experiment was planned ahead of time using excel sheet, 3–6 wells were reserved as blank media while 3–6 wells for vehicle (DMSO). The plate was incubated for 24 h for compound treatment step. DMEM media was used to prepare different dilutions of the compounds. The old DMEM media was removed from the wells using sterile pipette in the hood and the media was replaced with 100 μL media with each compound. The plate was incubated for 24 h. After 24 h incubation, WST-1 reagent (Sigma) was added to each well and then the plate was incubated for 1 h before measuring the absorbance using VICTOR™ Multilabel Plate Reader (Perkin Elmer, Beaconsfield, UK). The absorbance of the colored solution can be quantified by measuring at a certain wavelength (usually between 500–600 nm), in this experiment the first reading was conducted at 540 nm and the second reading at 690 nm for the reference wavelength. The percentage of cell viability was determined as the ratio of the absorbance of the sample vs the control. Three independent experiments were performed. […] 5-Florouracil (Sigma-Aldrich, F6627-1G) was used as reference standard.

[2] = system: HCT-116 human colon carcinoma cell line; test: WST-1 cell viability assay, HCT-116; format: cell-based; settings: WST-1, 24 h treatment, mean ± S.D of three independent experiments
Source text: as §1, §2, §3, §4

[3] = system: MDA-MB-231 human breast adenocarcinoma cell line; test: WST-1 cell viability assay, MDA-MB-231; format: cell-based; settings: WST-1, 24 h treatment, mean ± S.D of three independent experiments
Source text: as §1, §2, §3, §4

[4] = system: SK-OV-3 human ovarian carcinoma cell line; test: WST-1 cell viability assay, SK-OV-3; format: cell-based; settings: WST-1, 24 h treatment, mean ± S.D of three independent experiments
Source text: as §1, §2, §3, §4

[5] = system: MCF-7 human breast adenocarcinoma cell line; test: WST-1 cell viability assay, MCF-7; format: cell-based; settings: WST-1, 24 h treatment, mean ± S.D of three independent experiments
Source text: as §1, §2, §3, §4

[6] = Homo sapiens, Colon carcinoma cell

Compound | IC50 [1, 6] [µM] | IC50 ([2]; Homo sapiens, HCT-116) [µM] | IC50 ([3]; Homo sapiens, MDA-MB-231) [µM] | IC50 ([4]; Homo sapiens, SK-OV-3) [µM] | IC50 ([5]; Homo sapiens, MCF7, 24 h) [µM] | melting point [°C] | IC50 [1] [µM] | IC50 [2] [µM] | IC50 [3] [µM] | IC50 [4] [µM] | IC50 [5] [µM]
COc1ccc(-c2cc(-c3ccc(OC)c(OC)c3)c(C#N)c(OC)n2)cc1OC [Compound 4a, 2-Methoxy-4,6-bis(3,4-dimethoxyphenyl)pyridine-3-carbonitrile] | 13.2 ± 0.77 | 20.3 ± 0.85 | 32.1 ± 0.84 | 11.4 ± 0.72 | 9.08 ± 0.37 | – | – | – | – | – | –
CCOc1nc(-c2ccc(OC)c(OC)c2)cc(-c2ccc(OC)c(OC)c2)c1C#N [Compound 4b, 2-Ethoxy-4,6-bis(3,4-dimethoxyphenyl)pyridine-3-carbonitrile] | 19.8 ± 0.37 | 26.2 ± 1.22 | 40 ± 1.36 | 18.2 ± 0.98 | 15.5 ± 0.46 | – | – | – | – | – | –
CCCOc1nc(-c2ccc(OC)c(OC)c2)cc(-c2ccc(OC)c(OC)c2)c1C#N [Compound 4c, 4,6-bis(3,4-Dimethoxyphenyl)-2-propoxypyridine-3-carbonitrile] | 18.1 ± 1.03 | 10.1 ± 0.76 | 44.9 ± 1.74 | 22.1 ± 1.32 | 12.3 ± 0.77 | – | – | – | – | – | –
COc1ccc(-c2cc(-c3ccc(OC)c(OC)c3)c(C#N)c(OCC(C)=O)n2)cc1OC [Compound 4d, 4,6-bis(3,4-Dimethoxyphenyl)-2-(2-oxopropoxy)pyridine-3-carbonitrile] | 17.4 ± 0.44 | 13.1 ± 0.84 | 35.8 ± 0.96 | 25.2 ± 0.76 | 20.3 ± 0.98 | 110 to 112 | – | – | – | – | –
CCOC(=O)COc1nc(-c2ccc(OC)c(OC)c2)cc(-c2ccc(OC)c(OC)c2)c1C#N [Compound 5, Ethyl 2-(3-Cyano-4,6-bis(3,4-dimethoxyphenyl)pyridin-2-yloxy)acetate] | 22.1 ± 0.97 | 14.9 ± 0.98 | 25.1 ± 0.87 | 10.2 ± 0.44 | 15.4 ± 0.94 | – | – | – | – | – | –
O=c1[nH]cc(F)c(=O)[nH]1 [Compound 5-FU, 5-Florouracil, reference compound] | – | – | – | – | – | – | 20.2 ± 1.16 | 12.2 ± 1.1 | 15.1 ± 0.94 | 32.2 ± 1.03 | 7.06 ± 0.91
COc1ccc(-c2cc(-c3ccc(OC)c(OC)c3)c(C#N)c(OCc3nnc(S)o3)n2)cc1OC [Compound 14, 2-((5-Mercapto-1,3,4-oxadiazol-2-yl)methoxy)-4,6-bis(3,4-dimethoxyphenyl)pyridine-3-carbonitrile] | > 50 | > 50 | > 50 | 30.3 ± 1.12 | > 50 | – | – | – | – | – | –

The next lines start with the values.

IC50 [1, 6] [µM] | IC50 ([2]; Homo sapiens, HCT-116) [µM] | IC50 ([3]; Homo sapiens, MDA-MB-231) [µM] | IC50 ([4]; Homo sapiens, SK-OV-3) [µM] | IC50 ([5]; Homo sapiens, MCF7, 24 h) [µM] | melting point [°C] | IC50 [1] [µM] | IC50 [2] [µM] | IC50 [3] [µM] | IC50 [4] [µM] | IC50 [5] [µM] | Compound
11.2 ± 0.91 | 23.2 ± 0.95 | 30.1 ± 0.88 | 9.01 ± 0.42 | 11.2 ± 0.22 | 151 to 153 | – | – | – | – | – | COc1ccc(-c2cc(-c3ccc(OC)c(OC)c3)c(C#N)c(OCC(=O)NNC(=S)SC)n2)cc1OC [Compound 7a, Methyl 2-[2-(3-cyano-4,6-bis(3,4-dimethoxyphenyl)pyridin-2-yloxy)acetyl]hydrazinecarbodithioate]
15.2 ± 1.13 | 9.1 ± 0.97 | 37.9 ± 1.25 | 12.3 ± 0.88 | 18.1 ± 1.76 | 144 to 146 | – | – | – | – | – | CCSC(=S)NNC(=O)COc1nc(-c2ccc(OC)c(OC)c2)cc(-c2ccc(OC)c(OC)c2)c1C#N [Compound 7b, Ethyl 2-[2-(3-cyano-4,6-bis(3,4-dimethoxyphenyl)pyridin-2-yloxy)acetyl]hydrazinecarbodithioate]
20.3 ± 0.76 | 26.9 ± 0.97 | 31.7 ± 0.89 | 5.12 ± 0.11 | 7.1 ± 0.44 | 158 to 160 | – | – | – | – | – | COc1ccc(-c2cc(-c3ccc(OC)c(OC)c3)c(C#N)c(OCC(=O)NNC(=S)SCCN3CCOCC3)n2)cc1OC [Compound 7c, 2-Morpholinoethyl-2-[2-(3-cyano-4,6-bis(3,4-dimethoxyphenyl)pyridin-2-yloxy)acetyl]hydrazinecarbo-dithioate]
25 ± 1.33 | 11.2 ± 1.26 | 35.5 ± 1.03 | 10.1 ± 0.98 | 14.3 ± 0.95 | 160 to 162 | – | – | – | – | – | COc1ccc(-c2cc(-c3ccc(OC)c(OC)c3)c(C#N)c(OCC(=O)NNC(=S)SCCN3CCCCC3)n2)cc1OC [Compound 7d, 2-(Piperidin-1-yl)-ethyl-2-[2-(3-cyano-4,6-bis(3,4-dimethoxyphenyl)pyridin-2-yloxy)acetyl]hydrazinecarbo-dithioate]
12.32 ± 0.02 | 28.8 ± 0.31 | 25.3 ± 1.24 | 14.1 ± 0.95 | 12 ± 0.96 | 163 to 164 | – | – | – | – | – | COc1ccc(C=NNC(=O)COc2nc(-c3ccc(OC)c(OC)c3)cc(-c3ccc(OC)c(OC)c3)c2C#N)cc1 [Compound 8a, 2-[3-Cyano-4,6-bis(3,4-dimethoxyphenyl)pyridin-2-yl]oxy-N'-(4-methoxybenzylidene)acetohydrazide]
14.2 ± 0.91 | 25.2 ± 0.89 | 32.3 ± 0.87 | 10.2 ± 0.92 | 9.31 ± 0.98 | 190 to 192 | – | – | – | – | – | COc1ccc(C=NNC(=O)COc2nc(-c3ccc(OC)c(OC)c3)cc(-c3ccc(OC)c(OC)c3)c2C#N)cc1OC [Compound 8b, 2-[3-Cyano-4,6-bis(3,4-dimethoxyphenyl)pyridin-2-yl]oxy-N'-(3,4-dimethoxybenzylidene)acetohydrazide]
16.3 ± 0.37 | 25.9 ± 0.83 | 20.3 ± 1.06 | 12.1 ± 0.98 | 15.3 ± 0.74 | 232 to 234 | – | – | – | – | – | COc1ccc(-c2cc(-c3ccc(OC)c(OC)c3)c(C#N)c(OCC(=O)NN=Cc3cc(OC)c(OC)c(OC)c3)n2)cc1OC [Compound 8c, 2-[3-Cyano-4,6-bis(3,4-dimethoxyphenyl)pyridin-2-yl]oxy-N'-(3,4,5-trimethoxybenzylidene)acetohydrazide]
9.95 ± 1.06 | 17.9 ± 0.74 | 19.3 ± 0.86 | 7.08 ± 0.16 | 10.2 ± 0.92 | 170 to 172 | – | – | – | – | – | COc1ccc(C(=O)NNC(=O)COc2nc(-c3ccc(OC)c(OC)c3)cc(-c3ccc(OC)c(OC)c3)c2C#N)cc1 [Compound 9b, N'-[2-(3-cyano-4,6-bis(3,4-dimethoxyphenyl)pyridin-2-yloxy)acetyl]-4-methoxybenzo hydrazide]
12.1 ± 1.26 | 21.8 ± 0.85 | 26.8 ± 0.33 | 11.34 ± 0.02 | 13.4 ± 0.98 | 120 to 122 | – | – | – | – | – | COc1ccc(-c2cc(-c3ccc(OC)c(OC)c3)c(C#N)c(OCC(=O)NNS(=O)(=O)c3ccccc3)n2)cc1OC [Compound 10a, N'-[2-(3-cyano-4,6-bis(3,4-dimethoxyphenyl)pyridin-2-yloxy)acety]benzenesulfohydrazide]
15.7 ± 0.86 | 16.1 ± 1.07 | 22.4 ± 1.71 | 9.17 ± 0.38 | 8.12 ± 0.47 | 190 to 192 | – | – | – | – | – | COc1ccc(S(=O)(=O)NNC(=O)COc2nc(-c3ccc(OC)c(OC)c3)cc(-c3ccc(OC)c(OC)c3)c2C#N)cc1 [Compound 10b, N'-[2-(3-cyano-4,6-bis(3,4-dimethoxyphenyl)pyridin-2-yloxy)acetyl]-4-methoxybenzenesulfohydrazide]
